{
  "source": "PubChem BioAssay AID1963437",
  "about": "(Molecular Pharmacology Branch, DTP, NCI, 2024)",
  "system": "OVCAR-8 complex spheroid, growth inhibition",
  "test": "Anticancer human tumor OVCAR-8 cell line growth inhibition [Asc];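 also: spheroids exposed to agents for 7 days before readout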;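 as to viability, T/C: percent viability relative to DMSO vehicle wells taken as 100%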",
  "conditions": "for IC50: curve of first compound; for viability, T/C: stronger effect = lower value",
  "summary_of_the_method": "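Stromal components (HUVEC and hMSC) are co-assembled with the cancer cells into multicellular spheroids. Drugs are then added singly or paired, at concentrations falling by half-log increments from a clinically achievable maximum, capped at 10 microM without known Cmax.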",
  "key": {"[1]": {"conditions": "second compound 0.00316 µM, first compound 0.0316 µM"}, "[2]": {"conditions": "second compound 0.00316 µM, first compound 0.1 µM"}, "[3]": {"conditions": "second compound 0.00316 µM, first compound 0.316 µM"}, "[4]": {"conditions": "second compound 0.00316 µM, first compound 1 µM"}, "[5]": {"conditions": "second compound 0.00316 µM, first compound 3.16 µM"}, "[6]": {"conditions": "second compound 0.00316 µM, first compound 10 µM"}, "[7]": {"conditions": "second compound 0.01 µM, first compound 0.0316 µM"}, "[8]": {"conditions": "second compound 0.01 µM, first compound 0.1 µM"}, "[9]": {"conditions": "second compound 0.01 µM, first compound 0.316 µM"}, "[10]": {"conditions": "second compound 0.01 µM, first compound 1 µM"}, "[11]": {"conditions": "second compound 0.01 µM, first compound 3.16 µM"}, "[12]": {"conditions": "second compound 0.01 µM, first compound 10 µM"}, "[13]": {"conditions": "second compound 0.0316 µM, first compound 0.0316 µM"}, "[14]": {"conditions": "second compound 0.0316 µM, first compound 0.1 µM"}, "[15]": {"conditions": "second compound 0.0316 µM, first compound 0.316 µM"}, "[16]": {"conditions": "second compound 0.0316 µM, first compound 1 µM"}, "[17]": {"conditions": "second compound 0.0316 µM, first compound 3.16 µM"}, "[18]": {"conditions": "second compound 0.0316 µM, first compound 10 µM"}, "[19]": {"conditions": "second compound 0.1 µM, first compound 0.0316 µM"}, "[20]": {"conditions": "second compound 0.1 µM, first compound 0.1 µM"}, "[21]": {"conditions": "second compound 0.1 µM, first compound 0.316 µM"}, "[22]": {"conditions": "second compound 0.1 µM, first compound 1 µM"}, "[23]": {"conditions": "second compound 0.1 µM, first compound 3.16 µM"}, "[24]": {"conditions": "second compound 0.1 µM, first compound 10 µM"}, "[25]": {"conditions": "second compound 0.316 µM, first compound 0.0316 µM"}, "[26]": {"conditions": "second compound 0.316 µM, first compound 0.1 µM"}, "[27]": {"conditions": "second compound 0.316 µM, first compound 0.316 µM"}, "[28]": {"conditions": "second compound 0.316 µM, first compound 1 µM"}, "[29]": {"conditions": "second compound 0.316 µM, first compound 3.16 µM"}, "[30]": {"conditions": "second compound 0.316 µM, first compound 10 µM"}, "[31]": {"conditions": "second compound 1 µM, first compound 0.0316 µM"}, "[32]": {"conditions": "second compound 1 µM, first compound 0.1 µM"}, "[33]": {"conditions": "second compound 1 µM, first compound 0.316 µM"}, "[34]": {"conditions": "second compound 1 µM, first compound 1 µM"}, "[35]": {"conditions": "second compound 1 µM, first compound 3.16 µM"}, "[36]": {"conditions": "second compound 1 µM, first compound 10 µM"}},
  "data": [
    {"compound": "C#Cc1c(F)ccc2cc(O)cc(-c3ncc4c(N5CC6CCC(C5)N6)nc(OCC56CCCN5CC(F)C6)nc4c3F)c12", "note": "(centres undefined) + CNC(C)C(=O)NC1CN(S(=O)(=O)c2cccc(S(=O)(=O)N3CCC4CCC(C(=O)NC(c5ccccc5)c5ccccc5)N4C(=O)C(NC(=O)C(C)NC)C3)c2)CCC2CCC(C(=O)NC(c3ccccc3)c3ccccc3)N2C1=O", "values": [
      {"measurement": "IC50", "setting": "second compound 0.00316 µM", "result": "> 10000", "unit": "nM"},
      {"measurement": "IC50", "setting": "second compound 0.01 µM", "result": "> 10000", "unit": "nM"},
      {"measurement": "IC50", "setting": "second compound 0.0316 µM", "result": "> 10000", "unit": "nM"},
      {"measurement": "IC50", "setting": "second compound 0.1 µM", "result": "> 10000", "unit": "nM"},
      {"measurement": "IC50", "setting": "second compound 0.316 µM", "result": "> 10000", "unit": "nM"},
      {"measurement": "IC50", "setting": "second compound 1 µM", "result": "> 10000", "unit": "nM"},
      {"measurement": "viability, T/C", "setting": "[1]", "result": 106, "unit": "%"},
      {"measurement": "viability, T/C", "setting": "[2]", "result": 93.7, "unit": "%"},
      {"measurement": "viability, T/C", "setting": "[3]", "result": 87.8, "unit": "%"},
      {"measurement": "viability, T/C", "setting": "[4]", "result": 90.2, "unit": "%"},
      {"measurement": "viability, T/C", "setting": "[5]", "result": 101, "unit": "%"},
      {"measurement": "viability, T/C", "setting": "[6]", "result": 135, "unit": "%"},
      {"measurement": "viability, T/C", "setting": "[7]", "result": 104, "unit": "%"},
      {"measurement": "viability, T/C", "setting": "[8]", "result": 89.9, "unit": "%"},
      {"measurement": "viability, T/C", "setting": "[9]", "result": 91, "unit": "%"},
      {"measurement": "viability, T/C", "setting": "[10]", "result": 103, "unit": "%"},
      {"measurement": "viability, T/C", "setting": "[11]", "result": 96.4, "unit": "%"},
      {"measurement": "viability, T/C", "setting": "[12]", "result": 112, "unit": "%"},
      {"measurement": "viability, T/C", "setting": "[13]", "result": 89, "unit": "%"},
      {"measurement": "viability, T/C", "setting": "[14]", "result": 83.2, "unit": "%"},
      {"measurement": "viability, T/C", "setting": "[15]", "result": 83, "unit": "%"},
      {"measurement": "viability, T/C", "setting": "[16]", "result": 88.2, "unit": "%"},
      {"measurement": "viability, T/C", "setting": "[17]", "result": 96.4, "unit": "%"},
      {"measurement": "viability, T/C", "setting": "[18]", "result": 136, "unit": "%"},
      {"measurement": "viability, T/C", "setting": "[19]", "result": 80.6, "unit": "%"},
      {"measurement": "viability, T/C", "setting": "[20]", "result": 95.4, "unit": "%"},
      {"measurement": "viability, T/C", "setting": "[21]", "result": 88.4, "unit": "%"},
      {"measurement": "viability, T/C", "setting": "[22]", "result": 82.7, "unit": "%"},
      {"measurement": "viability, T/C", "setting": "[23]", "result": 85.8, "unit": "%"},
      {"measurement": "viability, T/C", "setting": "[24]", "result": 98.2, "unit": "%"},
      {"measurement": "viability, T/C", "setting": "[25]", "result": 74, "unit": "%"},
      {"measurement": "viability, T/C", "setting": "[26]", "result": 87.6, "unit": "%"},
      {"measurement": "viability, T/C", "setting": "[27]", "result": 80.2, "unit": "%"},
      {"measurement": "viability, T/C", "setting": "[28]", "result": 89.9, "unit": "%"},
      {"measurement": "viability, T/C", "setting": "[29]", "result": 77.1, "unit": "%"},
      {"measurement": "viability, T/C", "setting": "[30]", "result": 119, "unit": "%"},
      {"measurement": "viability, T/C", "setting": "[31]", "result": 80.9, "unit": "%"},
      {"measurement": "viability, T/C", "setting": "[32]", "result": 86.1, "unit": "%"},
      {"measurement": "viability, T/C", "setting": "[33]", "result": 112, "unit": "%"},
      {"measurement": "viability, T/C", "setting": "[34]", "result": 91.6, "unit": "%"},
      {"measurement": "viability, T/C", "setting": "[35]", "result": 88.5, "unit": "%"},
      {"measurement": "viability, T/C", "setting": "[36]", "result": 109, "unit": "%"}
    ]},
    {"compound": "C=C(F)C(=O)N1CCN(c2nc(OCC3CCCN3C)nc3c2CCN(c2cccc4cccc(Cl)c24)C3)CC1CC#N", "note": "(centres undefined) + CNC(C)C(=O)NC1CN(S(=O)(=O)c2cccc(S(=O)(=O)N3CCC4CCC(C(=O)NC(c5ccccc5)c5ccccc5)N4C(=O)C(NC(=O)C(C)NC)C3)c2)CCC2CCC(C(=O)NC(c3ccccc3)c3ccccc3)N2C1=O", "values": [
      {"measurement": "IC50", "setting": "second compound 0.00316 µM", "result": 1630, "unit": "nM"},
      {"measurement": "IC50", "setting": "second compound 0.01 µM", "result": 1720, "unit": "nM"},
      {"measurement": "IC50", "setting": "second compound 0.0316 µM", "result": 1600, "unit": "nM"},
      {"measurement": "IC50", "setting": "second compound 0.1 µM", "result": 958, "unit": "nM"},
      {"measurement": "IC50", "setting": "second compound 0.316 µM", "result": 756, "unit": "nM"},
      {"measurement": "IC50", "setting": "second compound 1 µM", "result": 639, "unit": "nM"},
      {"measurement": "viability, T/C", "setting": "[1]", "result": 114, "unit": "%"},
      {"measurement": "viability, T/C", "setting": "[2]", "result": 103, "unit": "%"},
      {"measurement": "viability, T/C", "setting": "[3]", "result": 107, "unit": "%"},
      {"measurement": "viability, T/C", "setting": "[4]", "result": 83.1, "unit": "%"},
      {"measurement": "viability, T/C", "setting": "[5]", "result": 4.81, "unit": "%"},
      {"measurement": "viability, T/C", "setting": "[6]", "result": 0.78, "unit": "%"},
      {"measurement": "viability, T/C", "setting": "[7]", "result": 98.7, "unit": "%"},
      {"measurement": "viability, T/C", "setting": "[8]", "result": 94.6, "unit": "%"},
      {"measurement": "viability, T/C", "setting": "[9]", "result": 96, "unit": "%"},
      {"measurement": "viability, T/C", "setting": "[10]", "result": 91.2, "unit": "%"},
      {"measurement": "viability, T/C", "setting": "[11]", "result": 4.17, "unit": "%"},
      {"measurement": "viability, T/C", "setting": "[12]", "result": 0.22, "unit": "%"},
      {"measurement": "viability, T/C", "setting": "[13]", "result": 97.8, "unit": "%"},
      {"measurement": "viability, T/C", "setting": "[14]", "result": 94.1, "unit": "%"},
      {"measurement": "viability, T/C", "setting": "[15]", "result": 96.1, "unit": "%"},
      {"measurement": "viability, T/C", "setting": "[16]", "result": 81.9, "unit": "%"},
      {"measurement": "viability, T/C", "setting": "[17]", "result": 3.55, "unit": "%"},
      {"measurement": "viability, T/C", "setting": "[18]", "result": 0.26, "unit": "%"},
      {"measurement": "viability, T/C", "setting": "[19]", "result": 83.1, "unit": "%"},
      {"measurement": "viability, T/C", "setting": "[20]", "result": 100, "unit": "%"},
      {"measurement": "viability, T/C", "setting": "[21]", "result": 95.7, "unit": "%"},
      {"measurement": "viability, T/C", "setting": "[22]", "result": 48.3, "unit": "%"},
      {"measurement": "viability, T/C", "setting": "[23]", "result": 3.72, "unit": "%"},
      {"measurement": "viability, T/C", "setting": "[24]", "result": 0.27, "unit": "%"},
      {"measurement": "viability, T/C", "setting": "[25]", "result": 90, "unit": "%"},
      {"measurement": "viability, T/C", "setting": "[26]", "result": 89.9, "unit": "%"},
      {"measurement": "viability, T/C", "setting": "[27]", "result": 106, "unit": "%"},
      {"measurement": "viability, T/C", "setting": "[28]", "result": 35.4, "unit": "%"},
      {"measurement": "viability, T/C", "setting": "[29]", "result": 3.15, "unit": "%"},
      {"measurement": "viability, T/C", "setting": "[30]", "result": 0.66, "unit": "%"},
      {"measurement": "viability, T/C", "setting": "[31]", "result": 78, "unit": "%"},
      {"measurement": "viability, T/C", "setting": "[32]", "result": 90.7, "unit": "%"},
      {"measurement": "viability, T/C", "setting": "[33]", "result": 97.1, "unit": "%"},
      {"measurement": "viability, T/C", "setting": "[34]", "result": 25.4, "unit": "%"},
      {"measurement": "viability, T/C", "setting": "[35]", "result": 2.44, "unit": "%"},
      {"measurement": "viability, T/C", "setting": "[36]", "result": 0.35, "unit": "%"}
    ]}
  ]
}
